The values below come from patent publication US10752615B2, “Spirocyclic containing compounds and pharmaceutical uses thereof” (GB005, Inc., priority 2016, dated 2020).

For one test, the target named is TXK (Homo sapiens (Human), UniProt P42681). Put plainly: Kinase inhibition assay (Nanosyn, microfluidic detection), TXK. The test is classed as biochemical. Particulars: 1 mM ATP, 3 hours at 25° C. The protocol:
The in vitro kinase assays were performed at Nanosyn (Santa Clara, Calif.) utilizing microfluidic detection technology. The test compounds were serially pre-diluted in DMSO and added, by the acoustic dispensing (Labcyte® 550), directly to 384 well assay plates into 10 uL of a buffer with enzyme (ITK, TXK, BTK or TEC) comprising: 100 mM HEPES, pH7.5, 5 mM MgCl2, 0.1% bovine serum albumin, 1 mM DTT, 0.01% Triton X-100 and the enzyme. Final DMSO concentration was maintained at 1% in all samples, including the controls. The reactions were initiated by addition of ATP (1 mM final concentration) and the fluorescently labeled peptide substrate to a final concentration of 1 uM, and incubated for 3 hours at 25° C. Following incubation, the reactions were quenched by addition of 40 μL of termination buffer (100 mM HEPES, pH7.5, 0.01% Triton X-100, 50 mM EDTA). Terminated plates were analyzed using Caliper LabChip® 3000 microfluidic electrophoresis instrument (Caliper Life Sciences/Perkin Elmer). […] As substrate and product are separated by electrophoresis, two peaks of fluorescence are observed. Change in the relative fluorescence intensity of the substrate and product peaks was the parameter measured, reflecting enzyme activity. In the presence of inhibitor, the ratio between product and substrate is altered: signal of the product decreases, while the signal of the substrate increases. Activity in each test sample was determined as the product to sum ratio (PSR): P/(S+P), where P is the peak height of the product and S is the peak height of the […]. For each compound, enzyme activity was measured at 12 concentrations spaced by 3× dilution intervals. Negative control samples (0%-inhibition in the absence of inhibitor, DMSO only) and positive control samples (100%-inhibition, in the absence of enzyme or in the presence of control inhibitor) were assembled in replicates of four and were used to calculate %-inhibition values in the presence of compounds. Percent inhibition (Pinh) was determined using the following equation: Pinh=(PSR0%−PSRinh)/(PSR0%−PSR100%)*100, where PSRinh is the product sum ratio in the presence of inhibitor, PSR0% is the product sum ratio in the absence of inhibitor and PSR100% is the product sum ratio in 100%-inhibition control samples. To determine IC50 values, the inhibition curves (Pinh versus inhibitor concentration) were fitted by 4 parameter sigmoid dose-response model using XLfit software (IDBS).

The next test deals with BTK (Homo sapiens (Human), UniProt Q06187). Put plainly: Kinase inhibition assay (Nanosyn, microfluidic detection), BTK. The test is classed as biochemical. Particulars: 1 mM ATP, 3 hours at 25° C. Here is the method: The in vitro kinase assays were performed at Nanosyn (Santa Clara, Calif.) utilizing microfluidic detection technology. The test compounds were serially pre-diluted in DMSO and added, by the acoustic dispensing (Labcyte® 550), directly to 384 well assay plates into 10 uL of a buffer with enzyme (ITK, TXK, BTK or TEC) comprising: 100 mM HEPES, pH7.5, 5 mM MgCl2, 0.1% bovine serum albumin, 1 mM DTT, 0.01% Triton X-100 and the enzyme. Final DMSO concentration was maintained at 1% in all samples, including the controls. The reactions were initiated by addition of ATP (1 mM final concentration) and the fluorescently labeled peptide substrate to a final concentration of 1 uM, and incubated for 3 hours at 25° C. Following incubation, the reactions were quenched by addition of 40 μL of termination buffer (100 mM HEPES, pH7.5, 0.01% Triton X-100, 50 mM EDTA). Terminated plates were analyzed using Caliper LabChip® 3000 microfluidic electrophoresis instrument (Caliper Life Sciences/Perkin Elmer). The enzymatic modification of the peptide substrate (phosphorylation) results in a change of net charge enabling electrophoretic separation of product from substrate. As substrate and product are separated by electrophoresis, two peaks of fluorescence are observed. Change in the relative fluorescence intensity of the substrate and product peaks was the parameter measured, reflecting enzyme activity. In the presence of inhibitor, the ratio between product and substrate is altered: signal of the product decreases, while the signal of the substrate increases. Activity in each test sample was determined as the product to sum ratio (PSR): P/(S+P), where P is the peak height of the product and S is the peak height of the […]. For each compound, enzyme activity was measured at 12 concentrations spaced by 3× dilution intervals. Negative control samples (0%-inhibition in the absence of inhibitor, DMSO only) and positive control samples (100%-inhibition, in the absence of enzyme or in the presence of control inhibitor) were assembled in replicates of four and were used to calculate %-inhibition values in the presence of compounds. Percent inhibition (Pinh) was determined using the following equation: Pinh=(PSR0%−PSRinh)/(PSR0%−PSR100%)*100, where PSRinh is the product sum ratio in the presence of inhibitor, PSR0% is the product sum ratio in the absence of inhibitor and PSR100% is the product sum ratio in 100%-inhibition control samples. To determine IC50 values, the inhibition curves (Pinh versus inhibitor concentration) were fitted by 4 parameter sigmoid dose-response model using XLfit software (IDBS).
BTK, sequence (Q06187 whole entry): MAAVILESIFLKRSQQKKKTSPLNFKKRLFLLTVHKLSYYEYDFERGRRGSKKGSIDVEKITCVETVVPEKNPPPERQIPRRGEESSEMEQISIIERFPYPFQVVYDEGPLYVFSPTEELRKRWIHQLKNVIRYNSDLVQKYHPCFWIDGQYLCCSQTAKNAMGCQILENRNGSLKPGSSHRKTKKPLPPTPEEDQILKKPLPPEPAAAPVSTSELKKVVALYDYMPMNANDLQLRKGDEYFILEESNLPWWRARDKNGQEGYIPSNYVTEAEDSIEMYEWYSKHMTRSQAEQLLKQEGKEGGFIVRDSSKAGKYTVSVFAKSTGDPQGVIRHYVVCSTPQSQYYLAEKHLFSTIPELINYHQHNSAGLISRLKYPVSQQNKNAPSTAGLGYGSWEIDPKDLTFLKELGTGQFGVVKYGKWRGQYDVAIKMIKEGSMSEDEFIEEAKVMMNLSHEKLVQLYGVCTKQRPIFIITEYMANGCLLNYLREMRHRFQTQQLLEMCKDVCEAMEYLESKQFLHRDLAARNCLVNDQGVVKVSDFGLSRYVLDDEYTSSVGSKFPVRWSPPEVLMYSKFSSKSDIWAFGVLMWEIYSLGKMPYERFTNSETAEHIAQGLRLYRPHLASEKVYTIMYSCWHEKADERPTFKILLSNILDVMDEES

TXK, sequence (P42681 whole entry): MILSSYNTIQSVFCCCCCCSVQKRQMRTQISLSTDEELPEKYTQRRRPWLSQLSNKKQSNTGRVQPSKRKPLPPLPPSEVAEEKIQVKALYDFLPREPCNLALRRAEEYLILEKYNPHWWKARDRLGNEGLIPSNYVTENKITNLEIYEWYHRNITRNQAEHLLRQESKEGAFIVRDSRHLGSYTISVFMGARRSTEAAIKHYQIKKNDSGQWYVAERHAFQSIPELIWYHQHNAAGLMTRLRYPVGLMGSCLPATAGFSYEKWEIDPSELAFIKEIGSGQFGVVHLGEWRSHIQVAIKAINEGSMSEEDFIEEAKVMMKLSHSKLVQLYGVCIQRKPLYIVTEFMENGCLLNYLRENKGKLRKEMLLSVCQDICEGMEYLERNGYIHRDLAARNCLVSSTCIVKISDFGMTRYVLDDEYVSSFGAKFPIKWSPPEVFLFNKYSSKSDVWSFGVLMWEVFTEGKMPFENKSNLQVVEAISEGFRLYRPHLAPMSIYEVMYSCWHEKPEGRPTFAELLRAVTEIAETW

With `C=CC(=O)N1CC[C@]2(C1)C[C@@H](n1c(NC(=O)c3ccc(-c4cnco4)s3)nc3cccc(F)c31)C2` [Compound 62], the IC50 against TXK came out at 1.58 nM; at BTK, 10.5 nM.

Regarding `C=CC(=O)N1CC[C@]2(C1)C[C@H](n1c(NC(=O)c3cccc(-c4cnco4)c3)nc3ccccc31)C2` [Compound 49], the figures for the IC50 against TXK and against BTK were 1.39 nM and 13.7 nM, respectively.

In the case of `C=CC(=O)N1CC[C@]2(C1)C[C@H](n1c(NC(=O)c3ccc(-c4cnco4)s3)nc3ccc(Cl)cc31)C2` [Compound 65], the IC50 amounted to 0.42 nM against TXK and 1.99 nM against BTK.

With `C=CC(=O)N1CC[C@]2(C1)C[C@H](n1c(NC(=O)c3ccc(-c4cnc(C)nc4)s3)nc3ccccc31)C2` [Compound 135], the values for the IC50 on TXK and against BTK were 8.67 nM and 12.7 nM, respectively.

As to `C=CC(=O)N1CC[C@]2(C1)C[C@H](n1c(NC(=O)c3ccc(-n4cccn4)s3)nc3ccccc31)C2` [Compound 89], the results for the IC50 against TXK and at BTK were 3.17 nM and 23.7 nM, respectively.

Turning to `C=CC(=O)N1CC[C@]2(C1)C[C@H](n1c(NC(=O)c3ccc(NC(=O)CC)s3)nc3ccccc31)C2` [Compound 105], the IC50 amounted to 23.2 nM against TXK and 112 nM at BTK.

In the case of `C=CC(=O)N1CC[C@]2(C1)C[C@H](n1c(NC(=O)c3ccc(-c4ccc(OC)nc4)s3)nc3ccccc31)C2` [Compound 95], the 50% inhibitory concentration (IC50) is 9.12 nM against TXK and 19.4 nM on BTK.

As to `C=CC(=O)N1CC[C@]2(C1)C[C@H](n1c(NC(=O)c3ccc(-c4cncc(NC)n4)s3)nc3ccccc31)C2` [Compound 140], the IC50 worked out at 0.2 nM against TXK and 0.54 nM on BTK.

As to `C=CC(=O)N1CC[C@]2(C1)C[C@H](n1c(NC(=O)c3ccc(-c4ccccc4)s3)nc3ccccc31)C2` [Compound 103], the IC50 turned out to be 0.93 nM on TXK and 6.12 nM at BTK.

Regarding `C=CC(=O)N1CC[C@]2(C1)C[C@H](n1c(NC(=O)c3ccc(-c4cncnc4C)s3)nc3ccccc31)C2` [Compound 134], the IC50 at TXK was found to be 1.01 nM; against BTK it was 8.36 nM.

As to `C=CC(=O)N1CC[C@]2(C1)C[C@@H](n1c(NC(=O)c3ccc(-c4cnco4)s3)nc3c(F)cccc31)C2` [Compound 67], the IC50 against TXK is 19.7 nM; on BTK, 99.2 nM.

For `C=CC(=O)N1CC[C@]2(C1)C[C@H](n1c(NC(=O)c3cc(C)cs3)nc3ccccc31)C2` [Compound 79], the IC50 at TXK is 17 nM; against BTK, 251 nM.

Turning to `C=CC(=O)N1CC[C@]2(C1)C[C@H](n1c(NC(=O)c3ccc(-c4cnco4)s3)nc3cc(CN4CCOCC4)ccc31)C2` [Compound 41], the IC50 against TXK is 0.92 nM; on BTK, 1.81 nM.

`C=CC(=O)N1CC[C@]2(C1)C[C@H](n1c(NC(=O)c3ccc(=O)[nH]c3)nc3ccccc31)C2` [Compound 83]: the figures for the IC50 at TXK and against BTK were 1.98 nM and 7.55 nM, respectively.

Turning to `C=CC(=O)N1CC[C@]2(C1)C[C@H](n1c(NC(=O)c3ccc(-c4c[nH]nc4C4CC4)s3)nc3ccccc31)C2` [Compound 129], the IC50 against TXK was found to be 0.21 nM; at BTK, 0.84 nM.

Take `C=CC(=O)N1CC[C@]2(C1)C[C@H](n1c(NC(=O)c3ccc(C(F)F)s3)nc3cc(CN[C@H]4C[C@H](O)C4)ccc31)C2` [Compound 36]: the IC50 against TXK amounted to 0.63 nM; against BTK, 1.14 nM.

Regarding `C=CC(=O)N1CC[C@]2(C1)C[C@H](n1c(NC(=O)c3ccc(C)s3)nc3ccccc31)C2` [Compound 104], the IC50 against TXK turned out to be 2.16 nM; against BTK it was 26.2 nM.

Regarding `C=CC(=O)N1CC[C@]2(C1)C[C@H](n1c(NC(=O)c3ccc(-c4cccnc4)s3)nc3ccccc31)C2` [Compound 90], the IC50 against TXK is 0.51 nM; at BTK, 5.23 nM.

Consider `C=CC(=O)N1CC[C@]2(C1)C[C@H](n1c(NC(=O)c3ccc(-c4cnco4)s3)nc3c(Cl)cccc31)C2` [Compound 64], for which the IC50 at TXK is 39.7 nM; at BTK, 124 nM.

On to `C=CC(=O)N1CC[C@]2(C1)C[C@H](n1c(NC(=O)c3ccno3)nc3cc(CN[C@@H](C)C(C)(C)C)ccc31)C2` [Compound 21], for which the IC50 against TXK came out at 1.22 nM; at BTK, 1.54 nM.

As to `C=CC(=O)N1CC[C@]2(C1)C[C@H](n1c(NC(=O)c3cccs3)nc3ccccc31)C2` [Compound 82], the IC50 against TXK amounted to 3.33 nM; against BTK it was 33.2 nM.

Turning to `C=CC(=O)N1CC[C@]2(C1)C[C@H](n1c(NC(=O)c3ccnn3C)nc3cc(CN[C@@H](C)C(C)(C)C)ccc31)C2` [Compound 14], the figures for the IC50 against TXK and at BTK were 3.9 nM and 23.4 nM, respectively.

With `C=CC(=O)N1CC[C@]2(C1)C[C@H](n1c(NC(=O)c3ccns3)nc3ccccc31)C2` [Compound 46], the IC50 against TXK amounted to 1.1 nM; on BTK, 1.44 nM.

For `C=CC(=O)N1CC[C@]2(C1)C[C@H](n1c(NC(=O)c3ccc(-c4ccncc4)s3)nc3ccccc31)C2` [Compound 110], the IC50 against TXK worked out at 0.18 nM; at BTK, 1.11 nM.

`C=CC(=O)N1CC[C@]2(C1)C[C@H](n1c(NC(=O)c3ccc(-c4cc(N)ncn4)s3)nc3ccccc31)C2` [Compound 141]: the results for the IC50 at TXK and at BTK were 0.29 nM and 1.83 nM, respectively.

As to `C=CC(=O)N1CC[C@]2(C1)C[C@H](n1c(NC(=O)c3ccc(-c4ccnc(CO)c4)s3)nc3ccccc31)C2` [Compound 146], the IC50 is 0.22 nM against TXK and 0.57 nM against BTK.

As for `C=CC(=O)N1CC[C@]2(C1)C[C@H](n1c(NC(=O)c3ccc(C(=O)NCC)s3)nc3ccccc31)C2` [Compound 101], the IC50 is 0.93 nM at TXK and 9.24 nM against BTK.

In the case of `C=CC(=O)N1CC[C@]2(C1)C[C@H](n1c(NC(=O)c3ccc(-c4cnn(C)c4)s3)nc3ccccc31)C2` [Compound 113], the IC50 against TXK stood at 1.32 nM; against BTK, 4.63 nM.

As for `C=CC(=O)N1CC[C@]2(C1)C[C@H](n1c(NC(=O)c3ccc(-c4c[nH]nc4C)s3)nc3ccccc31)C2` [Compound 156], the IC50 at TXK was 0.24 nM; against BTK, 0.7 nM.

With `C=CC(=O)N1CC[C@]2(C1)C[C@H](n1c(NC(=O)c3ccnc(C)c3)nc3cc(CN[C@@H](C)C(C)(C)C)ccc31)C2` [Compound 24], the values for the half-maximal inhibitory concentration (IC50) against TXK and at BTK were 0.99 nM and 5.47 nM, respectively.

As to `C=CC(=O)N1CC[C@]2(C1)C[C@H](n1c(NC(=O)c3ccc(-c4ccncn4)s3)nc3ccccc31)C2` [Compound 133], the IC50 on TXK was determined as 0.37 nM; against BTK, 3.27 nM.

With `C=CC(=O)N1CC[C@]2(C1)C[C@H](n1c(NC(=O)c3ccc(-c4cnco4)s3)nc3cc(N(C)C(=O)C4CCOCC4)ccc31)C2` [Compound 51], the IC50 against TXK was found to be 0.44 nM; on BTK it was 0.73 nM.

With `C=CC(=O)N1CC[C@]2(C1)C[C@H](n1c(NC(=O)c3ccc(C(F)F)s3)nc3ccccc31)C2` [Compound 15], the IC50 at TXK was 0.55 nM; against BTK, 4.4 nM.

The term IC50 denotes the concentration that gives 50% inhibition. A high value points to weaker potency in that assay.
